# Measured values as given in ChEMBL document CHEMBL5291721, “A preclinical secondary pharmacology resource illuminates target-adverse drug reaction associations of marketed drugs” (Nat Commun, 2023).
# Experiments:
# [1] = biological target: Hydroxycarboxylic acid receptor 2 (Homo sapiens, UniProt Q8TDS4)
# Substance-K receptor = biological target: T1, Substance-K receptor (Homo sapiens, UniProt P21452)
# T1 sequence (P21452 whole entry): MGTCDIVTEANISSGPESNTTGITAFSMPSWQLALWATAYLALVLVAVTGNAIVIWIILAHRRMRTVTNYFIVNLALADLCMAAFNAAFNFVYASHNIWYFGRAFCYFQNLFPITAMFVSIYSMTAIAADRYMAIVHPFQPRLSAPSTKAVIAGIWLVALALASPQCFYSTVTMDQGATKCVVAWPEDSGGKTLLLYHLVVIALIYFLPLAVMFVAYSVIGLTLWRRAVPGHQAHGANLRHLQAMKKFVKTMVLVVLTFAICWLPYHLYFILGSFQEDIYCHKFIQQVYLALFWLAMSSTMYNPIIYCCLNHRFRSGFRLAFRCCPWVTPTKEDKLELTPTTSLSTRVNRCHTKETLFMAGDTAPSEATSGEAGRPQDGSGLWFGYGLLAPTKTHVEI
# Cannabinoid receptor 1 = Cannabinoid receptor 1 (Homo sapiens, UniProt P21554); assay type: functional
# Androgen receptor [2] = biological target: T2, Androgen receptor (Homo sapiens, UniProt P10275)
# T2 sequence (P10275 whole entry): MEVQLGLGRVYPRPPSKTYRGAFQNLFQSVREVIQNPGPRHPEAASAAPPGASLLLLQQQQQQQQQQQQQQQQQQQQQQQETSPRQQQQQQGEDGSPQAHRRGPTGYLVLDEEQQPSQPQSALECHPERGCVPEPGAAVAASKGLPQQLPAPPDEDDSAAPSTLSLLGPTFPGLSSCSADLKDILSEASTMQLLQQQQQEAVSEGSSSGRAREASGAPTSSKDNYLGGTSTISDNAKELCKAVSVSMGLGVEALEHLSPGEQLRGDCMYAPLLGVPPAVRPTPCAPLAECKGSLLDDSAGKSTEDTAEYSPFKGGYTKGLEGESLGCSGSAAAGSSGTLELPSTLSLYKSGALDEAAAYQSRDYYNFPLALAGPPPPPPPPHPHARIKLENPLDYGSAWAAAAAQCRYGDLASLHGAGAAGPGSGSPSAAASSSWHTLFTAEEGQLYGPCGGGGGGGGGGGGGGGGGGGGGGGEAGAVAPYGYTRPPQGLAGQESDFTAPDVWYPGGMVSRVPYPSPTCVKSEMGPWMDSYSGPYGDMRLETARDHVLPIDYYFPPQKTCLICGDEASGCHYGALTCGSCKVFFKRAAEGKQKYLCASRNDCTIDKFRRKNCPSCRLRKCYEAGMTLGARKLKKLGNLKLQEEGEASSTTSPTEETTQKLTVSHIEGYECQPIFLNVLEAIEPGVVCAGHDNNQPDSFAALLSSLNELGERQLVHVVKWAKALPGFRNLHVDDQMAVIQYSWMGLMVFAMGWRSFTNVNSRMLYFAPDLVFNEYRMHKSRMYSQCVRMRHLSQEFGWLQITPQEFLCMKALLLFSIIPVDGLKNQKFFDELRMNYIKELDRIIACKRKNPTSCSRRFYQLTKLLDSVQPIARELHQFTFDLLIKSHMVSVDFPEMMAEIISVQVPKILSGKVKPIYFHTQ
# [3] = biological target: Vascular endothelial growth factor receptor 2 (Homo sapiens, UniProt P35968); assay type: functional
# Estrogen receptor = biological target: T3, Estrogen receptor (Homo sapiens, UniProt P03372); assay type: functional
# T3 sequence (P03372 whole entry): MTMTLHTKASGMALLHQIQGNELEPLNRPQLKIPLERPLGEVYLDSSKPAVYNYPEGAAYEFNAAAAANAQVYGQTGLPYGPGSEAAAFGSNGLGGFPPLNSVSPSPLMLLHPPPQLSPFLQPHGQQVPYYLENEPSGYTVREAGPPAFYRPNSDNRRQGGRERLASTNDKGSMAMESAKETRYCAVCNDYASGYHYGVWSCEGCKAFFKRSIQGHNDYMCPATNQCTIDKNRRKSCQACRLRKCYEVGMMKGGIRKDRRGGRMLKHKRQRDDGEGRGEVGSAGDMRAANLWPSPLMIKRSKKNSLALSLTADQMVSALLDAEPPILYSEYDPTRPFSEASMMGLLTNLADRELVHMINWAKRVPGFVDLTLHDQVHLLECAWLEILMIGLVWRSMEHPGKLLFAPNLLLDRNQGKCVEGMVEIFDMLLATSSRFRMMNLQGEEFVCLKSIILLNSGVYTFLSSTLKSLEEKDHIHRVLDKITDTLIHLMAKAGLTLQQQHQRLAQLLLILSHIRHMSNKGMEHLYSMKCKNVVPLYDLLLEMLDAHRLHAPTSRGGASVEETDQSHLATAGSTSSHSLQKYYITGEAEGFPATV
# Androgen receptor [4] = biological target: T4, Androgen receptor (Rattus norvegicus, UniProt P15207); assay type: functional
# T4 sequence (P15207 whole entry): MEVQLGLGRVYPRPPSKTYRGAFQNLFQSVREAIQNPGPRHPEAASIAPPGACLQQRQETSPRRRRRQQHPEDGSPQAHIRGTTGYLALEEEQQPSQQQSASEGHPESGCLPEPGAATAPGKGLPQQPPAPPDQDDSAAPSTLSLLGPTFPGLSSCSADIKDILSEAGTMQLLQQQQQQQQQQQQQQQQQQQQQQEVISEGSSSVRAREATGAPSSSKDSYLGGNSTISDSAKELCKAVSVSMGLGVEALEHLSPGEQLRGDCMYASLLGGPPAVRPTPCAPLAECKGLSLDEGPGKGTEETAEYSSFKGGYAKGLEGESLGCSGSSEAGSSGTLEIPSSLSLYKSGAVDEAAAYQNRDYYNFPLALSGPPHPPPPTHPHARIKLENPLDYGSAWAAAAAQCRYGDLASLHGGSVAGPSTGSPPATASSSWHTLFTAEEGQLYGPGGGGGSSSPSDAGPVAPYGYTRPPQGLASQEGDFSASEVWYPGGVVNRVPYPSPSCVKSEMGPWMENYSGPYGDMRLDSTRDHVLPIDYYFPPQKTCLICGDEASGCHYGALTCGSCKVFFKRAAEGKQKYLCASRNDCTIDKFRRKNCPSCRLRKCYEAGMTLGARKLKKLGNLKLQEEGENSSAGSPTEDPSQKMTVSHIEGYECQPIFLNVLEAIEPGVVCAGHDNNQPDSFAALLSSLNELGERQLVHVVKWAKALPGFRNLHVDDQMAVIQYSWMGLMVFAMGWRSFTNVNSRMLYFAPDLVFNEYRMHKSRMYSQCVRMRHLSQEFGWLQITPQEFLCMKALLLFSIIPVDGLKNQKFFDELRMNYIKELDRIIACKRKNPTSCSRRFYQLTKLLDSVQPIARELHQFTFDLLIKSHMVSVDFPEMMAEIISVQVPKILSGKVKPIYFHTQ
# Androgen receptor [5] = biological target: T4, Androgen receptor
# Also: assay procedure not described here.
# Vascular endothelial growth factor receptor 2, sequence (P35968 whole entry): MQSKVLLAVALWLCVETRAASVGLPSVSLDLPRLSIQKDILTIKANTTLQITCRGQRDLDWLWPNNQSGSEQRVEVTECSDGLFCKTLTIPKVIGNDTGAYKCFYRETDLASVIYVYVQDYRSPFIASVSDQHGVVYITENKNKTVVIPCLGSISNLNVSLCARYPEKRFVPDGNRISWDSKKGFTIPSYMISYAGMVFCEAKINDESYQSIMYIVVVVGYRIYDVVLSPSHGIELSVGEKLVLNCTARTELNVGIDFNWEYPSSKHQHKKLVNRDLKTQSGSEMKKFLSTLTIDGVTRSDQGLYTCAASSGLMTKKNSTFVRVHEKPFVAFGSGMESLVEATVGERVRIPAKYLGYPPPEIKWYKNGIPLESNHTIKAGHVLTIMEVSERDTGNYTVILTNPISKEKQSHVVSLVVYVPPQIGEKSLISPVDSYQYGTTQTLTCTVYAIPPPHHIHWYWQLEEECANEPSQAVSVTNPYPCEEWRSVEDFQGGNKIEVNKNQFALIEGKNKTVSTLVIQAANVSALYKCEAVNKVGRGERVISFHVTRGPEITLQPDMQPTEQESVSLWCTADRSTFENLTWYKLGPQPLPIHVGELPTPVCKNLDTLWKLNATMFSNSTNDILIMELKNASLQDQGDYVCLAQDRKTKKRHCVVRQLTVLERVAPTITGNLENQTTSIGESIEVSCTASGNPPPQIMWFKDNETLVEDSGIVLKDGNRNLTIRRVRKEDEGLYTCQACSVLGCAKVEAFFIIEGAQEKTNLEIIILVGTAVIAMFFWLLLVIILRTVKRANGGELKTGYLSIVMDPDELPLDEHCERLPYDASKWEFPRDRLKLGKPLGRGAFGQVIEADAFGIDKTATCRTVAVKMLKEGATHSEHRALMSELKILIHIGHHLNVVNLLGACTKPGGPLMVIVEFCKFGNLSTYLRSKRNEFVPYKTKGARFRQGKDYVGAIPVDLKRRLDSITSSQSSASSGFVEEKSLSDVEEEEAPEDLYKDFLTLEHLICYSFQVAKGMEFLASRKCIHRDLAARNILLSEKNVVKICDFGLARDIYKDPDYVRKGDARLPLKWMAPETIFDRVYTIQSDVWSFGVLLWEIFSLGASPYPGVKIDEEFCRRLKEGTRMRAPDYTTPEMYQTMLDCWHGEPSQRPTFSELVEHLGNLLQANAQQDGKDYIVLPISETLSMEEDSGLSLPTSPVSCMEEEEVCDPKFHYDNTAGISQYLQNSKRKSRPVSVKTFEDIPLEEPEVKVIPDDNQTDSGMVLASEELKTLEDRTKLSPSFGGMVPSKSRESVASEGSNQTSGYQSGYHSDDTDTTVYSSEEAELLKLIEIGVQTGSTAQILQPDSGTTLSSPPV
# Hydroxycarboxylic acid receptor 2, sequence (Q8TDS4 whole entry): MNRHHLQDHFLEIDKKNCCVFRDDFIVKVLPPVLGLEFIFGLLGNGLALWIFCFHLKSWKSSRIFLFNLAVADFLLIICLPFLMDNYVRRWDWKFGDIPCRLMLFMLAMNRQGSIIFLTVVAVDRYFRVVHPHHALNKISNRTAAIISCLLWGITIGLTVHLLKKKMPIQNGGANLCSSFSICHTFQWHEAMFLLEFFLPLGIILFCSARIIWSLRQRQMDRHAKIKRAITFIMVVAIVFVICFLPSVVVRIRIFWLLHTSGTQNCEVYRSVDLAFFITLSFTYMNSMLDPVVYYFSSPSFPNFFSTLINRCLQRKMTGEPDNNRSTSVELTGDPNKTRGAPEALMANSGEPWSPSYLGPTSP
# Cannabinoid receptor 1, sequence (P21554 whole entry): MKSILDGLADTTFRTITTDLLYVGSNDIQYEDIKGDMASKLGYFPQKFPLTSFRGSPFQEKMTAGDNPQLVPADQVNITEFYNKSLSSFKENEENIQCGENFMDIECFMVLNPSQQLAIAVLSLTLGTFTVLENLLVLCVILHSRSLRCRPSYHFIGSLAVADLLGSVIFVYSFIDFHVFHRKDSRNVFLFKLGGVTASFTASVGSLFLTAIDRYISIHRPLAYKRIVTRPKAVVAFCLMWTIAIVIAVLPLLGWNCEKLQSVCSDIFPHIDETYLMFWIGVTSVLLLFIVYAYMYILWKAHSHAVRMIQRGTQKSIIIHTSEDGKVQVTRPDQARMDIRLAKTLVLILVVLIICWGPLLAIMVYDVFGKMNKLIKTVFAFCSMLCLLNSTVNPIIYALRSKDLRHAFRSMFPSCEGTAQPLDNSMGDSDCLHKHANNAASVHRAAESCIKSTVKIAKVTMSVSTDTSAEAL
smiles,measurement,setting,value
CCN(CC)CCNC(=O)c1cc(Cl)c(N)cc1OC [METOCLOPRAMIDE],AC50,[1],> 10 µM
CCOC(=O)[C@H](CCc1ccccc1)N[C@@H](C)C(=O)N1CCC[C@H]1C(=O)O,AC50,Substance-K receptor,> 10 µM
same,AC50,Cannabinoid receptor 1,> 10 µM
CCO/N=C(\C(=O)N[C@@H]1C(=O)N2C(C(=O)[O-])=C(Sc3nc(-c4cc[n+](C)cc4)cs3)CS[C@H]12)c1nsc(N)n1 [CEFTAROLINE],AC50,Androgen receptor [2],> 30 µM
CC(C)Cc1ccc(CC(=O)O)cc1 [IBUFENAC],AC50,[3],> 30 µM
CCc1ccc(CCOc2ccc(CC3SC(=O)NC3=O)cc2)nc1 (stereo unspecified) [PIOGLITAZONE],AC50,Cannabinoid receptor 1,> 10 µM
CC(=O)c1ccc2c(c1)N(CCCN1CCN(CCO)CC1)c1ccccc1S2 [ACETOPHENAZINE],AC50,Estrogen receptor,13 µM
CC(C)C(=O)Nc1ccc([N+](=O)[O-])c(C(F)(F)F)c1 [FLUTAMIDE],AC50,[3],> 30 µM
CCC(=O)c1c(O)cc(O)cc1O [FLOPROPIONE],AC50,Androgen receptor [2],> 30 µM
CC(=O)OC[C@H]1O[C@@H](n2ccc(=O)[nH]c2=O)[C@H](OC(C)=O)[C@@H]1OC(C)=O [URIDINE TRIACETATE],AC50,Androgen receptor [2],> 30 µM
NC(N)=Nc1nc(CSCCC(N)=NS(N)(=O)=O)cs1 [FAMOTIDINE],AC50,Substance-K receptor,> 10 µM
same,AC50,Cannabinoid receptor 1,> 10 µM
CC(N)Cc1ccccc1 (stereo unspecified) [AMPHETAMINE],AC50,Estrogen receptor,> 30 µM
same,AC50,Androgen receptor [4],> 30 µM
same,AC50,Androgen receptor [5],> 30 µM
CCc1nn(CCCN2CCN(c3cccc(Cl)c3)CC2)c(=O)n1CCOc1ccccc1 [NEFAZODONE],AC50,Cannabinoid receptor 1,> 10 µM
CCCS(=O)(=O)Nc1ccc(F)c(C(=O)c2c[nH]c3ncc(-c4ccc(Cl)cc4)cc23)c1F [VEMURAFENIB],AC50,Androgen receptor [4],> 30 µM
Cc1ccc(O)c2ncccc12 [TILIQUINOL],AC50,Androgen receptor [2],> 30 µM
CCC[C@@H]1C[C@@H](C(=O)N[C@@H]([C@H]2O[C@H](SC)[C@H](O)[C@@H](O)[C@H]2O)[C@H](C)Cl)N(C)C1 [CLINDAMYCIN],AC50,[1],> 10 µM
CC[C@H](C)C(=O)O[C@H]1C[C@H](O)C=C2C=C[C@H](C)[C@H](CC[C@@H](O)C[C@@H](O)CC(=O)O)[C@H]21 [PRAVASTATIN],AC50,Estrogen receptor,> 30 µM
O=C1c2c(O)c(=O)ccn2N([C@@H]2c3ccccc3SCc3c2ccc(F)c3F)[C@@H]2COCCN12 [BALOXAVIR],AC50,Androgen receptor [2],> 30 µM
C[C@H]1C[C@@H]2[C@H]([C@@H](O)C[C@@]3(C)[C@H]2CC[C@]3(O)C(=O)CO)[C@@]2(C)C=CC(=O)C=C12 [METHYLPREDNISOLONE],AC50,Androgen receptor [5],> 30 µM
NS(=O)(=O)c1cc2c(cc1Cl)NCNS2(=O)=O [HYDROCHLOROTHIAZIDE],AC50,Substance-K receptor,> 10 µM
same,AC50,Cannabinoid receptor 1,> 10 µM
NC(=O)c1cnccn1 [PYRAZINAMIDE],AC50,[3],> 30 µM
same,AC50,Cannabinoid receptor 1,> 10 µM
CC(C(=O)O)c1ccc(N2CC=CC2)c(Cl)c1 (stereo unspecified) [PIRPROFEN],AC50,[1],> 10 µM
same,AC50,Androgen receptor [2],> 30 µM
same,AC50,Androgen receptor [5],> 30 µM
C[C@@H]1O[C@@H]1P(=O)(O)O [FOSFOMYCIN],AC50,Androgen receptor [5],> 30 µM
CC(C)NNC(=O)c1ccncc1 [IPRONIAZID],AC50,Estrogen receptor,> 30 µM
same,AC50,Androgen receptor [4],> 30 µM
same,AC50,[3],> 30 µM
CC(C)OC(=O)[C@H](C)N[P@](=O)(OC[C@H]1O[C@@H](n2ccc(=O)[nH]c2=O)[C@](C)(F)[C@@H]1O)Oc1ccccc1 [SOFOSBUVIR],AC50,Androgen receptor [2],> 30 µM
COC(=O)[C@@H]1CC2=CC(=O)CC[C@]2(C)[C@@]23O[C@@H]2C[C@@]2(C)[C@@H](CC[C@@]24CCC(=O)O4)[C@H]13 [EPLERENONE],AC50,Estrogen receptor,> 30 µM
same,AC50,[3],> 30 µM
O=C(CCCCCCC(=O)Nc1ccccc1)NO [VORINOSTAT],AC50,Substance-K receptor,> 10 µM
same,AC50,Cannabinoid receptor 1,> 10 µM
CN1CCCC(n2nc(Cc3ccc(Cl)cc3)c3ccccc3c2=O)CC1 (stereo unspecified) [AZELASTINE],AC50,Estrogen receptor,> 30 µM
CN(CCOc1ccc(NS(C)(=O)=O)cc1)CCc1ccc(NS(C)(=O)=O)cc1 [DOFETILIDE],AC50,[1],> 10 µM
CC(C)NCC(O)COc1ccc(COCCOC(C)C)cc1 (stereo unspecified) [BISOPROLOL],AC50,Androgen receptor [5],> 30 µM
COC(=O)N[C@H](C(=O)N1CCC[C@H]1c1nc(-c2ccc(-c3ccc(-c4c[nH]c([C@@H]5CCCN5C(=O)[C@@H](NC(=O)OC)C(C)C)n4)cc3)cc2)c[nH]1)C(C)C,AC50,Androgen receptor [4],> 30 µM
COc1cc(Nc2c(C#N)cnc3cc(OCCCN4CCN(C)CC4)c(OC)cc23)c(Cl)cc1Cl [BOSUTINIB],AC50,Cannabinoid receptor 1,> 10 µM
C#C[C@]1(O)CC[C@H]2[C@@H]3CCc4cc(O)ccc4[C@H]3CC[C@@]21C [ETHINYL ESTRADIOL],AC50,[1],> 10 µM
Nc1nc(N)c2nc(-c3ccccc3)c(N)nc2n1,AC50,Substance-K receptor,> 10 µM
same,AC50,Androgen receptor [4],> 30 µM
same,AC50,[3],> 30 µM
same,AC50,Androgen receptor [2],> 30 µM
same,AC50,Cannabinoid receptor 1,> 10 µM
same,AC50,Androgen receptor [5],> 30 µM
Oc1ncnc2[nH]ncc12 [ALLOPURINOL],AC50,[3],> 30 µM
same,AC50,[1],> 10 µM
COc1ccc2c(c1)C(=O)N(CCc1ccc(S(=O)(=O)NC(=O)NC3CCCCC3)cc1)C(=O)C2(C)C [GLIQUIDONE],AC50,Androgen receptor [4],> 30 µM
C[C@H]1O[C@H](O[C@H]2[C@H](O)[C@@H](O)[C@@H](O[C@H]3[C@H](O)[C@@H](O)C(O)O[C@@H]3CO)O[C@@H]2CO)[C@H](O)[C@@H](O)[C@@H]1N[C@H]1C=C(CO)[C@@H](O)[C@H](O)[C@H]1O (stereo partly specified) [ACARBOSE],AC50,Cannabinoid receptor 1,> 10 µM
C(=N\NC1=NCCN1)/c1c2ccccc2c(/C=N/NC2=NCCN2)c2ccccc12 [BISANTRENE],AC50,Androgen receptor [2],> 30 µM
OCc1cc([C@@H](O)CNCCCCCCOCCOCc2c(Cl)cccc2Cl)ccc1O [VILANTEROL],AC50,Estrogen receptor,> 30 µM
same,AC50,Androgen receptor [4],> 30 µM
COc1cc2c(cc1OC)C(=O)C(CC1CCN(Cc3ccccc3)CC1)C2 (stereo unspecified) [DONEPEZIL],AC50,Androgen receptor [2],> 30 µM
same,AC50,Cannabinoid receptor 1,> 10 µM
same,AC50,Androgen receptor [5],> 30 µM
CCOC(=O)N[C@@H]1CC[C@@H]2[C@@H](C1)C[C@H]1C(=O)O[C@H](C)[C@H]1[C@H]2/C=C/c1ccc(-c2cccc(F)c2)cn1 [VORAPAXAR],AC50,Androgen receptor [2],> 30 µM
